The values that follow come from ChEMBL document CHEMBL1144323, “Reversal of anticancer drug resistance by COTC based on intracellular glutathione and glyoxalase I” (Bioorg Med Chem Lett, 2005).

One test addresses Lactoylglutathione lyase (Homo sapiens, UniProt Q04760). Put plainly: Inhibitory constant against Glyoxalase I.
For another test, the species on record is Homo sapiens. Nature of the test: Effect of COTC on GSH level in human pancreatic adenocarcinoma cell was determined at 30 ug/mL of COTC. It counts as functional.

Structures are written as SMILES.

The Ki is the dissociation constant of the complex between target and ligand, obtained from inhibition or displacement. The low end stands for higher affinity, the high end for lower affinity.

Sequence of Lactoylglutathione lyase (Q04760 whole entry): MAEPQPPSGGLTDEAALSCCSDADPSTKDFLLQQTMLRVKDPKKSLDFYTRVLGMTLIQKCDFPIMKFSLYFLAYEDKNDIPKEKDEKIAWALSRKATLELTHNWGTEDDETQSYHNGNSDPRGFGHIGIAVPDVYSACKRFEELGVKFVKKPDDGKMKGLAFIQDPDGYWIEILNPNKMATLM

`NC(CCC(=O)NC(CSCC1=C[C@@H](O)[C@@H](O)[C@@H](O)C1=O)C(=O)NCC(=O)O)C(=O)O` (some centres not stated) returned an inhibitory constant (Ki) at Lactoylglutathione lyase of 183 µM. `C/C=C/C(=O)OCC1=C[C@@H](O)[C@@H](O)[C@@H](O)C1=O` registered a Decrease in the test listed under Homo sapiens of 40%.
